Measured values reported in patent US10525060B2, “HCK as a therapeutic target in MYD88 mutated diseases” (Dana-Farber Cancer Institute, Inc., priority 2016, dated 2020).
Read-outs that look alike come from different tables or passages of the source.

What was measured:
FYN, SRC, YES = test: KiNativ profiling in WM cell lines; type: binding, Homo sapiens; settings: 1 μM
HCK [1] = biological target: T1, HCK (Homo sapiens, UniProt P08631); test: Kinase active-site inhibition assay (ATP-biotin probe, western blot) in BCWM.1 cells; type: binding; set-up: endogenous in cells; host or cells: BCWM.1 (A3); BCWM.1, MWCL-1, TMD-8 (A8); WM and ABC DLBCL lines and primary WM cells (A12); settings: BCWM.1 WM cells, pre-treated 1 hour, various concentrations
Description: (§1) Cells then washed with PBS twice, and lysed with co-IP buffer (Invitrogen, Grand Island N.Y.). Two mg of protein from lysed cells was then incubated with […] of Pierce Streptavidin Magnetic Beads (Thermo Fisher Scientific, Cambridge Mass.) at 4° C. for 1 hour, then washed with TBST (0.1% Tween-20) thrice, and proteins eluted with SDS-PAGE sample buffer. […] Cells then were lysed and kinases were pulled down with ATP-biotin using Pierce™ Kinase Enrichment Kit (Thermo Fisher Scientific) per manufacturer's instructions. Kinases were eluted with SDS-PAGE sample buffer and detected by western blot.

LYN [2] = biological target: T2, LYN (Homo sapiens, UniProt P07948); test: KiNativ profiling in WM cell lines; type: binding; set-up: endogenous in cells; host or cells: BCWM.1 and MWCL-1 WM cell lines; settings: for inhibition at 1 µM: read-out: KiNativ profiling, LYN inhibition (labeling site Lys1); for KiNativ profiling, LYN inhibition (labeling site Lys1): 1 μM
[3] = system: mutated MYD88 expressing WM and ABC DLBCL cell lines; test: CellTiter-Glo Luminescent cell viability assay; type: cell-based
Description: Apoptosis analysis was performed using Annexin V/Propidium iodide staining with the Apoptosis Detection Kit I (BD Pharmingen, San Jose Calif.). Cells (1×10^6/well) were treated in 24 well plates for 18 hours with inhibitors or corresponding controls. A minimum of 10,000 events were acquired using a BD™ FACSCanto II flow cytometer, and analyzed with BD FACS DIVA Software. For WM patient cells, BMMC (2×10^6/well) were treated with inhibitors, and CD19-APC-cy7 antibody (BD Pharmingen) was used with Annexin V antibody to analyze WM cell apoptosis. AlamarBlue® cell viability assay (Life Technologies, Carlsbad Calif.) was used to assess cell death following inducible HCK knockdown. For these experiments, transduced cells (1×10^5/ml) were cultured with tetracycline, and aliquoted every other day on days 1-11. […] Aliquoted plates were read in a SpectraMax M3 plate reader (Molecular Devices, Sunnyvale, Calif.). Relative cell survival was calculated as percentage of fluorescence relative to scrambled control. […] Luminescent measurement was performed using the 2104 Envision® Multilabel Reader (PerkinElmer Inc.).
(§2) We also evaluated tumor cell viability by the CellTiter-Glo® Luminescent cell viability assay, and apoptosis by propidium iodide and Annexin V staining to determine if HCK inhibition contributed to WM cell death.

CD19+ bone marrow cells = test: Apoptosis by flow cytometry in cells from a WM patient resistant to ibrutinib; type: cell-based, human
Description: Apoptosis analysis was performed using Annexin V/Propidium iodide staining with the Apoptosis Detection Kit I (BD Pharmingen, San Jose Calif.). Cells (1×10^6/well) were treated in 24 well plates for 18 hours with inhibitors or corresponding controls. A minimum of 10,000 events were acquired using a BD™ FACSCanto II flow cytometer, and analyzed with BD FACS DIVA Software. For WM patient cells, BMMC (2×10^6/well) were treated with inhibitors, and CD19-APC-cy7 antibody (BD Pharmingen) was used with Annexin V antibody to analyze WM cell apoptosis. AlamarBlue® cell viability assay (Life Technologies, Carlsbad Calif.) was used to assess cell death following inducible HCK knockdown. For these experiments, transduced cells (1×10^5/ml) were cultured with tetracycline, and aliquoted every other day on days 1-11. AlamarBlue® solution ( 1/10 total volume) was added to cells and incubated for 2 hours. Aliquoted plates were read in a SpectraMax M3 plate reader (Molecular Devices, Sunnyvale, Calif.). Relative cell survival was calculated as percentage of fluorescence relative to scrambled control. The CellTiter-Glo® Luminescent cell viability assay (Promega, Madison Wis.) was used to assess the dose-response of inhibitors. […] Luminescent measurement was performed using the 2104 Envision® Multilabel Reader (PerkinElmer Inc.).

CD5+CD19+ PBMC cells = test: Apoptosis ex vivo in cells from a CLL patient resistant to ibrutinib; type: cell-based, human; settings: DMSO 11.9%
[4] = system: mutated MYD88 cell lines and primary WM cells; test: Apoptosis by propidium iodide and Annexin V staining; type: cell-based; settings: 0.5 μM, 18 hours
Description: (§3) Apoptosis analysis was performed using Annexin V/Propidium iodide staining with the Apoptosis Detection Kit I (BD Pharmingen, San Jose Calif.). Cells (1×10^6/well) were treated in 24 well plates for 18 hours with inhibitors or corresponding controls. A minimum of 10,000 events were acquired using a BD™ FACSCanto II flow cytometer, and analyzed with BD FACS DIVA Software. For WM patient cells, BMMC (2×10^6/well) were treated with inhibitors, and CD19-APC-cy7 antibody (BD Pharmingen) was used with Annexin V antibody to analyze WM cell apoptosis. AlamarBlue® cell viability assay (Life Technologies, Carlsbad Calif.) was used to assess cell death following inducible HCK knockdown. For these experiments, transduced cells (1×10^5/ml) were cultured with tetracycline, and aliquoted every other day on days 1-11. AlamarBlue® solution ( 1/10 total volume) was added to cells and incubated for 2 hours. Aliquoted plates were read in a SpectraMax M3 plate reader (Molecular Devices, Sunnyvale, Calif.). Relative cell survival was calculated as percentage of fluorescence relative to scrambled control. The CellTiter-Glo® Luminescent cell viability assay (Promega, Madison Wis.) was used to assess the dose-response of inhibitors. Cells were seeded into 384 well plates with the EL406 Combination Washer Dispenser (BioTek Instruments, Inc.) and inhibitors injected into the cells culture media with the JANUS Automated Workstation (PerkinElmer Inc., Waltham Mass.). Cells were treated with serial diluted inhibitors […] for 72 hours at 37° C. Luminescent measurement was performed using the 2104 Envision® Multilabel Reader (PerkinElmer Inc.).
as §2

[5] = system: MYD88^WT cell lines or healthy donor B-cells; test: as above; type: cell-based; settings: data not shown
Description: as §3, §2

HCK (pTyr^411) = biological target: T3, HCK (pTyr^411) (Homo sapiens, UniProt P08631); test: PhosFlow analysis of HCK Tyr411 phosphorylation; type: cell-based; settings: MYD88 L265P WM and ABC DLBCL cell lines and primary WM LPC, 0.5 μM, 30 minutes
T3 construct: endogenous in cells; host or cells: BCWM.1 (A3); BCWM.1, MWCL-1, TMD-8 (A8); WM and ABC DLBCL lines and primary WM cells (A12)
Description: PhosFlow analysis was performed to delineate HCK phosphorylation. Cells were fixed with BD PhosFlow Fix Buffer I at 37° C. for 10 min. Cells were then centrifuged (300×g for 5 min) and washed twice with PhosFlow Perm/Wash Buffer I (BD Pharmingen). […] Following staining, cells were incubated in the dark for 30 min at room temperature, then washed thrice with BD PhosFlow Perm/Wash Buffer I, followed by anti-Rabbit IgG DyLight®-649 secondary antibody (Abcam), and incubated for an additional 20 min. Cells were then washed twice with BD PhosFlow Perm/Wash Buffer I and flow analysis performed using a BD™ FACSCanto II Flow Cytometer.
as §2

SRC = biological target: T4, SRC (Homo sapiens, UniProt P12931); test: Kinase active-site inhibition assay (ATP-biotin probe, western blot) in BCWM.1 cells; type: binding; settings: BCWM.1 WM cells, pre-treated 1 hour, various concentrations
T4 construct: endogenous in cells; host or cells: BCWM.1
Description: as §1

LYN [6] = biological target: T2, LYN; test: as above; type: binding; set-up: endogenous in cells; host or cells: BCWM.1; settings: BCWM.1 WM cells, pre-treated 1 hour, various concentrations
Description: as §1

BCWM.1 WM cells = test: Dose dependent tumor cell survival of BCWM.1 cells transduced with BTK or HCK vectors; type: cell-based
Source text: as §2

BTK = biological target: T5, BTK (Homo sapiens, UniProt Q06187); test: Kinase active-site inhibition assay (ATP-biotin probe, western blot) in BCWM.1 cells; type: binding; settings: BCWM.1 WM cells, pre-treated 1 hour, various concentrations
T5 construct: endogenous in cells; host or cells: BCWM.1 (A4); BCWM.1, MWCL-1, TMD-8 (A7)
Description: as §1

TMD-8 ABC DLBCL cells = test: Cell viability of TMD-8 cells transfected with BTK vectors; type: cell-based; settings: FIG. 8B
HCK [7] = biological target: T1, HCK; settings: read-out: IC50 kinase activity of HCK; cited from earlier work

SMILES | KiNativ profiling, FYN, SRC, YES (labeling site Activation Loop) (FYN, SRC, YES; BCWM.1 cells) | KiNativ profiling, FYN, SRC, YES (labeling site Activation Loop) (FYN, SRC, YES; MWCL-1 cells) | blocking of ATP binding to HCK (HCK [1]) | inhibition at 1 µM (LYN [2]; BCWM.1 cells) | inhibition at 1 µM (LYN [2]; MWCL-1 cells) | apoptotic changes [4] | apoptotic activity [5] | change in HCK Tyr411 phosphorylation (HCK (pTyr^411)) | blocking of ATP binding to SRC (SRC) | blocking of ATP binding to LYN (LYN [6]) | other results
CN1CCN([C@H]2CC[C@H](n3cc(-c4ccc(Oc5ccccc5)cc4)c4c(N)ncnc43)CC2)CC1 [A419259] | >99 | 98.1 | blocked ATP binding to HCK in a dose-dependent manner | > 99% | > 99% | Increased apoptotic changes | little or no apoptotic activity | reduced HCK Tyr^411 phosphorylation | blocked ATP binding to the SRC family members SRC and LYN | blocked ATP binding to the SRC family members SRC and LYN | dose-dependent viability ([3]; 72 hours, more pronounced in mutated MYD88 than MYD88 WT cells): Decreased dose-dependent viability; apoptotic cells (CD19+ bone marrow cells; 0.1 μM): 20.8%; apoptotic cells (CD19+ bone marrow cells; 0.5 μM): 24.6%; apoptotic cells (CD5+CD19+ PBMC cells; 0.1 μM): 18.4%; apoptotic cells (CD5+CD19+ PBMC cells; 0.5 μM): 25.6%
C=CC(=O)Nc1cccc(Nc2nc(Nc3ccc(OCCOC)cc3)ncc2F)c1 [CC-292] | 10.5 | −0.4 | not CC-292 blocked ATP binding to HCK |  |  | little or no impact on apoptosis | little or no apoptotic activity | little or no impact on HCK Tyr^411 phosphorylation | did not block ATP binding to either SRC or LYN | did not block ATP binding to either SRC or LYN | potency for tumor cell killing in BTK^C481S expressing cells versus wild-type BTK or control vector (BCWM.1 WM cells; BCWM.1 WM cells, FIG. 8A): reduced potency; change in tumor cell killing with HCK^T333M or wild-type HCK (BCWM.1 WM cells; BCWM.1 transduced to express HCK^T333M or wild-type HCK): No substantial change in tumor cell killing; KiNativ profiling, LYN inhibition (labeling site Lys1) (LYN [2]; BCWM.1 cells): 15.7; KiNativ profiling, LYN inhibition (labeling site Lys1) (LYN [2]; MWCL-1 cells): 14.2; higher EC50 in viability assay ([3]; mutated MYD88 cell lines except OCI-Ly3, 72 hours): > 1 log-fold; blocking of ATP binding to BTK (BTK): blocked ATP binding to BTK; potency for tumor cell killing in BTK^C481S expressing cells versus wild-type BTK or control vector (TMD-8 ABC DLBCL cells): decreased the potency; IC50 (HCK [7]): 14.6 µM
C=CC(=O)N1CCC[C@@H](n2nc(-c3ccc(Oc4ccccc4)cc3)c3c(N)ncnc32)C1 [Ibrutinib] |  |  |  | 60.5% | 80.6% |  |  |  |  |  | 
